pIC50: −log10 of the molar value.
Experiments:
CCK1 receptor = biological target: T1, CCK1 receptor (Homo sapiens, UniProt P32238); settings: read-out: IC50 to the CCK1 receptor; cited from earlier work
T1 sequence (P32238 1-428): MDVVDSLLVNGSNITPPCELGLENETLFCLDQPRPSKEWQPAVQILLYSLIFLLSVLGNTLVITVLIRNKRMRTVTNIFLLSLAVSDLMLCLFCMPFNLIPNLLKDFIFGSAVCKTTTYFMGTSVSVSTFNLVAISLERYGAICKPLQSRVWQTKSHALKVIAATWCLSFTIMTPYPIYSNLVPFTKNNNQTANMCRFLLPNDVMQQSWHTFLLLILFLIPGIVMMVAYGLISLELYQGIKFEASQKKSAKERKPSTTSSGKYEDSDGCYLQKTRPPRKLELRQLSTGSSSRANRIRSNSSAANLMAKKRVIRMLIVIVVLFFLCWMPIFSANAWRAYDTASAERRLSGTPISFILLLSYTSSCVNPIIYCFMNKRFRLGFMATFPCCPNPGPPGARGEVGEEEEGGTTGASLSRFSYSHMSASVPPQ

[1] = test system: spared nerve injury (SNI) mice; experiment: Tail suspension test in spared nerve injury (SNI) mice; format: in vivo, mouse; settings: 30 ng/kg Day 7-Day 30, tested Day 40 (10 days after discontinuation), vs SNI-saline and Sham-saline, FIG. 1A
Text: (§1) The antidepressant and analgesic activities of the compound of formula (IIb) (referred to as YM022) and the compound of formula (IIIb) (referred to as YF476) were investigated in a mouse model of spared nerve injury (SNI). The SNI model is a partial denervation model in which the injured nerves produce consistent pain hypersensitivity in the territory of the spared sural nerve, wherein the spared nerve injury can provoke depressive-like behaviors. In the experiment, depressive-like behaviors were assessed by a tail suspension test and monitoring body weight. Responses to pain were tested by measuring the sensitivity to mechanical stimulation by von Frey filaments.
(§2) For the SNI surgery, the mice were anesthetized by intraperitoneal injection of ketamine (100 mg/kg) and xylazine (15 mg/kg). […]
(§3) After SNI surgery (Day 0), the mice were treated with the compound of formula (IIb) (referred to as YM022) and the compound of formula IIIb (referred to as YF476), both at 30 ng/kg, for 24 days (Day 7-Day 30). The bodyweight of the mice were measured (FIG. 1B) and the tail suspension test (FIG. 1A) was carried out on Day 40 to assess the depressive status. […] A blinded observer monitored the test for 6 min and recorded the immobility time.

CCK2 receptor [2] = biological target: T2, CCK2 receptor (Homo sapiens, UniProt P32239); settings: cited from earlier work
T2 sequence (P32239 1-447): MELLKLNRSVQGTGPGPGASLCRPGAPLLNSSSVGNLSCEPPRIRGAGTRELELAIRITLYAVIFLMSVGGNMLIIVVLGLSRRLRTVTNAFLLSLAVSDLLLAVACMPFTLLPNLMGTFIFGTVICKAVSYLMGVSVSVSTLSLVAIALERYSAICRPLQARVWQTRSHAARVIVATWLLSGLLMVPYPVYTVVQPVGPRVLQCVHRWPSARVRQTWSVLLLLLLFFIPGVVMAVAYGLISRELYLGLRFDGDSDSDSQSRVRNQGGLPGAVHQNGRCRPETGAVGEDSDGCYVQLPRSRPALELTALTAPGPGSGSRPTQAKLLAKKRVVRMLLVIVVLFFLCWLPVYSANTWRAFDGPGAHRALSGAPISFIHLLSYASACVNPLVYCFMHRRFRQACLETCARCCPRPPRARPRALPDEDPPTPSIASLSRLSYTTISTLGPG

mice [3] = experiment: Acute forced swim test; format: in vivo, mouse; settings: 30 μg/kg intraperitoneally 30 minutes before test, 5-minute test, vs saline, FIG. 3B
Procedure: In the forced swim test, mice were forced to swim in a narrow cylinder from which they cannot escape. A Plexiglas cylinder (13 cm diameter and 24 cm high) containing water (22° C.±2° C.) to a depth of 10 cm was used. The mice were injected intraperitoneally with YM022 (30 μg/kg), YF476 (30 μg/kg) or saline 30 minutes before the test. After placing the animals in the cylinders, the duration of immobility during the 5-minute test were measured.

[4] = test system: spared nerve injury (SNI) mice; experiment: Von Frey filament test in SNI mice; format: in vivo, mouse; settings: Day 8 (after drug injection), FIG. 2
Text: as §1
For the SNI surgery, the mice were anesthetized by intraperitoneal injection of ketamine (100 mg/kg) and xylazine (15 mg/kg). The skin on the lateral surface of the left thigh was cleaned and incised, and then sterile scissors were used to expose three branches of the sciatic nerves: namely sural, common peroneal, and tibial nerves. […]
The Von Frey filament test was used 1 day before the surgery (Day-1) or on Day 1, Day 7 (after drug injection), Day 8 (after drug injection) to estimate the sensitivity of the mice to the mechanical stimulation. […] Response in three out of five stimuli was regarded as a positive reaction and the threshold level was recorded (FIG. 2).

[5] = test system: spared nerve injury (SNI) mice; experiment: Body weight of SNI mice; format: in vivo, mouse; settings: 30 ng/kg Day 7-Day 30, Day 40, vs SNI-saline, FIG. 1B
Text: as §1, §2, §3

CCK2 receptor [6] = biological target: T2, CCK2 receptor
mice [7] = experiment: Acute tail suspension test; format: in vivo, mouse; settings: 3 μg/kg or 30 μg/kg intraperitoneally 30 minutes before test, vs saline, FIG. 3A
Procedure: After SNI surgery (Day 0), the mice were treated with the compound of formula (IIb) (referred to as YM022) and the compound of formula IIIb (referred to as YF476), both at 30 ng/kg, for 24 days (Day 7-Day 30). The bodyweight of the mice were measured (FIG. 1B) and the tail suspension test (FIG. 1A) was carried out on Day 40 to assess the depressive status. In the tail suspension test, each mouse was suspended by its tail and secured by adhesive tape to the suspension bar. A blinded observer monitored the test for 6 min and recorded the immobility time.
In another acute tail suspension test, mice were injected intraperitoneally with YM022 (3 μg/kg or 30 μg/kg), YF476 (3 μg/kg or 30 μg/kg) or saline 30 minutes before the test. The tail suspension test was then performed as described above.

Compound	pIC50 (CCK1 receptor)	immobile time in tail suspension test [1]	pIC50 (CCK2 receptor [2])	immobile time in forced swim test (mice [3])	mechanical threshold in Von Frey filament test [4]	body weight [5]	selectivity CCK2 versus CCK1 receptor (CCK2 receptor [6])	immobile time in acute tail suspension test (mice [7])
Cc1cccc(NC(=O)N[C@@H]2N=C(c3ccccc3)c3ccccc3N(CC(=O)c3ccccc3C)C2=O)c1 [YM022]	7.20	reduced immobile time	10.15	less immobile time	higher mechanical threshold	increased body weight	selectively inhibit CCK2 receptors	less immobile time
CNc1cccc(NC(=O)N[C@@H]2N=C(c3ccccn3)c3ccccc3N(CC(=O)C(C)(C)C)C2=O)c1 [YF476]	6.30	reduced immobile time	9.96	less immobile time	higher mechanical threshold	increased body weight	selectively inhibit CCK2 receptors	less immobile time
